Like-named read-outs stand apart in the source and are kept apart here.
How the values were obtained:
[1] = molecular target: T1, A2BARs in Jurkat-T cell membranes (Homo sapiens, UniProt P29275); assay type: binding; details: vs [3H]PSB-603 (0.3 nM); Jurkat-T cells, A2B ≥ A2A; read-out: Ki ± SEM
T1 construct: Human Jurkat-T cells natively expressing A2A and A2BARs; endogenous in cells; host or cells: Jurkat-T
Experimental: The preparation of Jurkat-T cell membranes was performed as follows: a Jurkat-T cell suspension was centrifuged in 50 ml falcon tubes at 200 g, 4° C, 5 min. The supernatant was discarded and the cell pellets were quickly frozen at –80° C. The defrosted pellets were then resuspended in ice-cold 25 mM Tris-buffer, 0.32 M sucrose, 1 mM ethylenediaminetetraacetic acid (EDTA), 0.1 mM phenylmethanesulfonylfluoride (PMSF), pH 7.4, and homogenized with an Ultra-Turrax (30 s on ice). The homogenate was centrifuged for 10 min at 1000 g at 4° C. The resulting pellets were discarded and the supernatant was centrifuged for 1 h at 48.000 g at 4° C. Pellets containing the membranes were resuspended in aqua bidest., homogenized with an Ultra-Turrax (30 s on ice) and centrifuged under the same conditions. The supernantant was discarded and the pellets were resuspended in 50 mM Tris-buffer, pH 7.4 and homogenized with a glass Teflon homogenizer on ice. The resuspended and homogenzied pellets were aliquoted and stored at –80° C until use.
After an incubation time of 60 min at rt, the assay mixture was filtered through GF/B glass fiber filters. Washing buffer: 50 mM Tris-HCl buffer, 0.1% bovine serum albumin (BSA), pH 7.4.

[2] = molecular target: T2, A2BARs in HeLa cell membranes (Homo sapiens, UniProt P29275); assay type: binding; details: vs [3H]PSB-603 (0.3 nM); HeLa cells, A2B ≥ A2A; read-out: Ki ± SEM
T2 construct: HeLa cells natively expressing human A2A and A2BARs; endogenous in cells; host or cells: HeLa
Experimental: (§4) The preparations of CHO and HeLa membranes recombinantly (or natively) expressing human A2A and/or A2BAR subtypes were performed as previously described [5]. Membranes from HEK-A2B or A2A cells, which were used for some of the radioligand competition binding studies, were purchased from Perkin Elmer (Waltham, USA). […] The protein content of all membrane preparations was determined with the Lowry method [58].

human A2AAR [3] = molecular target: T3, human A2AAR (Homo sapiens, UniProt P29274); assay: cAMP accumulation assay in CHO-A2A cells; assay type: cell-based
T3 construct: expressed in transfected cells
T3 sequence (P29274 whole entry): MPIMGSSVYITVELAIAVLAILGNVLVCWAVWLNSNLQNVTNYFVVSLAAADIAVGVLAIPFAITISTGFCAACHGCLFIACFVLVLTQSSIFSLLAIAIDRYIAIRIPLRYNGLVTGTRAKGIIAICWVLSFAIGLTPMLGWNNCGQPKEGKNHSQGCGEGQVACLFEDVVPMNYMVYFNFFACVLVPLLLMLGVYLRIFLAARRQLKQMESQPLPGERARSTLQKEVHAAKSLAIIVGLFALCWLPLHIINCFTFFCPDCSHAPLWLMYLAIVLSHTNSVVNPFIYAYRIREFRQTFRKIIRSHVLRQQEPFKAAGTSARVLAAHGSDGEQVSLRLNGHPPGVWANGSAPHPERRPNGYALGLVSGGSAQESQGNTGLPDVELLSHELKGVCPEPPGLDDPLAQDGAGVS
Experimental: (§1) The determination of cAMP accumulation in recombinant CHO and in Jurkat-T cells was performed as previously described.

[4] = molecular target: T4, human A2AAR and A2BAR in HEK293T cells (Homo sapiens, UniProt P29274+P29275); assay: cAMP assay at HEK-A2A cells transiently transfected with increasing amounts of A2BAR; assay type: cell-based; details: 100 nM agonist, A2BAR cDNA 0.25–1.5 µg
T4 construct: expressed in transfected cells; host or cells: HEK293T
T4 sequence (P29274 whole entry, one chain of several): as the sequence (P29274 whole entry) above
Experimental: HEK293T cells were transiently transfected with the corresponding cDNA (pcDNA3.1+-hA2B, pcDNA3.1+-hA2A) by the polyethylenimine (Sigma) method [62]. The determination of AR-induced cAMP accumulation in HEK293T cells transiently expressing A2A and A2BARs was performed as previously described [62].

[5] = molecular target: T4, human A2AAR and A2BAR in HEK293T cells; assay: Dynamic mass redistribution (DMR) assay in HEK293T cells transfected with A2A and A2BAR cDNA; assay type: cell-based; details: 100 nM agonist
Experimental: In brief, 24 h before the assay, cells were seeded at a density of 7,500 cells per well in 384-well sensor microplates with 40 µl of growth medium and cultured for 24 h (37° C, 5 % CO2) to obtain 70–80% confluent monolayers. […] Hereafter, the sensor plate was scanned and a baseline optical signature was recorded before adding 10 µl of test compound dissolved in assay buffer containing 0.1% DMSO and DMR responses were monitored for at least 8,000 s using an EnSpire® Multimode Plate Reader (PerkinElmer, Waltham, MA, USA) by a label-free technology. Data were analyzed using EnSpire Workstation Software v 4.10.

[6] = molecular target: T5, A2A and A2BARs natively expressed in Jurkat-T cells (Homo sapiens, UniProt P29274+P29275); parameters: method as in ref [15] (a number printed in a supplementary file, which may have a reference list of its own: not looked up in the article's list); details: cAMP accumulation, up to 10 µM, ref [15]; cited from earlier work
T5 sequence (P29274 whole entry, one chain of several): as the sequence (P29274 whole entry) above

[7] = test system: HEK293 (native) cells, A2B ≥ A2A; details: cited from earlier work
HEK-A2B cells, A2B ≥ A2A = details: cited from earlier work
[8] = test system: T24 human bladder carcinoma cells; details: T24 human bladder carcinoma, cited from earlier work
[9] = test system: Human prostatic carcinoma cells PC-3; parameters: method as in Wei Q, et al. Purinergic Signal. 2013; 9: 271-280. [23]; details: et al. Purinergic Signal. 2013, 9: 271-280. [23], cited from earlier work
[10] = test system: prostate cancer cell lines (A2B > A2A); details: three prostate cancer cell lines (A2B > A2A); ref [13]; cited from earlier work
human A2BAR [11] = molecular target: T6, human A2BAR (Homo sapiens, UniProt P29275); parameters: expressed in transfected cells; details: vs [3H]PSB-603 (0.3 nM); A2BAR expressing HEK or CHO membranes; ref [14]; read-out: Ki ± SEM; cited from earlier work
T6 sequence (P29275 1-332): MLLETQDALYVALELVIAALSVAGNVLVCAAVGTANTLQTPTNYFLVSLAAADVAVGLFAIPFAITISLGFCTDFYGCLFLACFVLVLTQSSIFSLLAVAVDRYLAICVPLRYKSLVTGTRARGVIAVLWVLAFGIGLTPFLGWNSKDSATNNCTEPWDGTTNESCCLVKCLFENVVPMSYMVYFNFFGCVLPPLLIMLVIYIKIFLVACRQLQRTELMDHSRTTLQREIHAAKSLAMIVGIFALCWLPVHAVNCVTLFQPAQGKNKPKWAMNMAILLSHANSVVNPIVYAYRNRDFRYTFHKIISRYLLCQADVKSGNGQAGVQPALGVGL

human A2BAR [12] = molecular target: T6, human A2BAR; parameters: expressed in transfected cells; details: cAMP accumulation; CHO-A2B; ref [13]; cited from earlier work
human A2AAR [13] = molecular target: T3, human A2AAR; assay type: binding
Experimental: The preparations of CHO and HeLa membranes recombinantly (or natively) expressing human A2A and/or A2BAR subtypes were performed as previously described [5]. Membranes from HEK-A2B or A2A cells, which were used for some of the radioligand competition binding studies, were purchased from Perkin Elmer (Waltham, USA). The preparation of Jurkat-T cell membranes was performed as follows: a Jurkat-T cell suspension was centrifuged in 50 ml falcon tubes at 200 g, 4° C, 5 min. The supernatant was discarded and the cell pellets were quickly frozen at –80° C. The defrosted pellets were then resuspended in ice-cold 25 mM Tris-buffer, 0.32 M sucrose, 1 mM ethylenediaminetetraacetic acid (EDTA), 0.1 mM phenylmethanesulfonylfluoride (PMSF), pH 7.4, and homogenized with an Ultra-Turrax (30 s on ice). The homogenate was centrifuged for 10 min at 1000 g at 4° C. The resulting pellets were discarded and the supernatant was centrifuged for 1 h at 48.000 g at 4° C. Pellets containing the membranes were resuspended in aqua bidest., homogenized with an Ultra-Turrax (30 s on ice) and centrifuged under the same conditions. The supernantant was discarded and the pellets were resuspended in 50 mM Tris-buffer, pH 7.4 and homogenized with a glass Teflon homogenizer on ice. […] The protein content of all membrane preparations was determined with the Lowry method [58].

human A2AAR [14] = molecular target: T3, human A2AAR; details: vs [3H]MSX-2 (1 nM), A2AAR expressing HEK or CHO membranes, read-out: Ki ± SEM, cited from earlier work
human A2BAR [15] = molecular target: T6, human A2BAR; assay: biochemical
Experimental: as §4

human A2BAR [16] = molecular target: T6, human A2BAR; assay: cell-based
Experimental: as §1

[17] = molecular target: T5, A2A and A2BARs natively expressed in Jurkat-T cells; details: read-out: KB-value ± SEM, cAMP accumulation, antagonist potency versus NECA
Experimental: as §1

[18] = test system: isolated perfused mouse heart; details: A2B knockout vs wildtype mice, ref [51]; cited from earlier work
[19] = test system: CHO-K1 cell membranes (non-transfected); assay: Radioligand affinity (saturation or homologous competition) at CHO cells; assay type: binding, Chinese hamster
Experimental: (§2) Radioligand receptor binding experiments at membrane preparation of native (HeLa) and recombinant cells (CHO- or HEK cells recombinantly expressing A2A and/or A2BARs) using the A2B-selective antagonist radioligand [³H]PSB-603 (spec. activity: 79 Ci/mmol) to detect A2BARs were performed as previously described. Competition binding experiments at various membrane preparations of native (HeLa, Jurkat-T) and recombinant cells (CHO or HEK cells expressing A2A and/or A2BARs) using the A2A-selective antagonist radioligand [^3H]MSX-2 (spec. activity: 85 Ci/mmol) to detect A2AARs were performed in analogy to described procedures. […] Non-specific binding was determined in the presence of unlabeled MSX-2, or CGS-15943, respectively (10 µM), both giving identical results.
(§3) The assay was performed in a final volume of 400 µl containing 4 µl of test compound dissolved in DMSO, 196 µl buffer (50 mM Tris-HCl, 10 mM MgCl2 pH 7.4), 100 µl of radioligand solution in the same buffer (5 nM), and 100 µl of membrane preparation (10 to 200 µg of protein per vial, 2 U/ml ADA 20 min incubation at rt). […] All data were analyzed with GraphPad Prism, Version 4 (GraphPad Inc., La Jolla, CA).

human A2AAR [20] = molecular target: T3, human A2AAR; assay: Radioligand affinity at HEK or CHO-A2A; assay type: binding; details: saturation
Experimental: as §2, §3

HA-tagged human A2AAR = molecular target: T7, HA-tagged human A2AAR (Homo sapiens, UniProt P29274); assay: Radioligand affinity at CHO-HA-A2A; assay type: binding; details: homologous competition
T7 construct: HA; expressed in transfected cells
T7 sequence (P29274 whole entry): as the sequence (P29274 whole entry) above

[21] = molecular target: T8, A2A and A2BARs in Jurkat-T cell membranes (Homo sapiens, UniProt P29274+P29275); assay: Radioligand affinity at Jurkat-T cells (A2B ≥ A2A); assay type: binding; details: homologous competition
T8 construct: Human Jurkat-T cells natively expressing A2A and A2BARs; endogenous in cells; host or cells: Jurkat-T
T8 sequence (P29274 whole entry, one chain of several): as the sequence (P29274 whole entry) above
Experimental: as §2
as §3, with “CA). […]” for “CA).”

[22] = molecular target: T9, A2A and A2BARs in HeLa cell membranes (Homo sapiens, UniProt P29274+P29275); assay: Radioligand affinity at HeLa cells (A2B ≥ A2A); assay type: binding; details: homologous competition, read-out: KD ± SEM
T9 construct: HeLa cells natively expressing human A2A and A2BARs; endogenous in cells; host or cells: HeLa
T9 sequence (P29274 whole entry, one chain of several): as the sequence (P29274 whole entry) above
Experimental: as §2, §3

[23] = molecular target: A2A and A2BARs in intact primary human lymphocytes; assay: Radioligand affinity at intact primary human T-lymphocytes, unstimulated; assay type: binding; details: T-Lymphocytes unstimulated (A2A > A2B), intact cells, homologous competition
[24] = molecular target: A2A and A2BARs in intact primary human lymphocytes; assay: Radioligand affinity at intact primary human T-lymphocytes, stimulated with phytohemagglutinin; assay type: binding; details: T-Lymphocytes stimulated (A2A > A2B); intact cells; homologous competition; read-out: KD ± SEM
human A2BAR [25] = molecular target: T6, human A2BAR; parameters: expressed in transfected cells; method as in ref [12] (a number printed in a supplementary file, which may have a reference list of its own: not looked up in the article's list); details: HEK or CHO-A2B (A2B); saturation; ref [12]; read-out: KD ± SEM; cited from earlier work
[26] = ref Gao Z, et al. Biochem Pharmacol. 2014, 90: 297-306. [17]
[27] = ref Hinz S, et al. J Pharmacol Exp Ther. 2014, 3: 427-436. [15]
[28] = ref Cooper J, et al. Br J Pharmacol. 1997, 122: 546-550. [18]
[29] = ref Phelps PT, et al. Eur J Pharmacol. 2006, 536: 28-37. [20]

N#Cc1c(N)nc(SCC(N)=O)c(C#N)c1-c1ccc(OCC2CC2)cc1 [BAY60-6583]
Ki [1]: 2960 nM | Ki [2]: 212 ± 58 nM | EC50 (human A2AAR [3]; cAMP accumulation, CHO-A2A): > 10000 nM | change in cAMP accumulation with increasing amounts of transiently transfected A2BAR [4]: significant increase in cAMP accumulation | change in DMR signal with increasing amounts of transiently transfected A2BAR [5]: time-dependent increase in the signal | EC50 (result in words) [6]: low signal | EC50 [7, 26]: 296 nM | EC50 (HEK-A2B cells, A2B ≥ A2A; [26]): 6.14 nM | EC50 (HEK-A2B cells, A2B ≥ A2A; [27]): 505 nM | EC50 [8, 26]: 43 nM | EC50 ([9]; ref Wei Q): 7.2 nM | induction of cAMP accumulation [10]: concentration-dependently induced cAMP accumulation | Ki (human A2BAR [11]): 212 ± 20 nM | EC50 (human A2BAR [12]): 165 nM

CCCn1c(=O)c2[nH]c(C3CCCC3)nc2n(CCC)c1=O [DPCPX, 8-cyclopentyl-1,3-dipropylxanthine]
A2B antagonist IC50/KB [7, 28]: DPCPX: 97.7 nM

CCCn1c(=O)c2[nH]c(-c3ccc(OCC(=O)Nc4ccc(C#N)cc4)cc3)nc2n(CCC)c1=O [MRS1754]
A2B antagonist IC50/KB [8, 29]: MRS1754: 665 nM

C#CCn1c(=O)c2c(nc(C=Cc3cccc(OC)c3)n2C)n(CCCO)c1=O [MSX-2, 3-(3-hydroxypropyl)-7-methyl-8-(m-methoxystyryl)-1-propargylxanthine]
Ki (human A2AAR [13]): 5 ± 0.6 nM | Kb (human A2AAR [3]; read-out: KB-value ± SEM): 14.5 ± 3.6 nM | Ki (human A2AAR [14]; ref [13]): 2.03 nM | Ki (human A2BAR [15]): > 1000 nM

CCCn1c(=O)[nH]c2nc(-c3ccc(S(=O)(=O)N4CCN(c5ccc(Cl)cc5)CC4)cc3)[nH]c2c1=O [PSB-603, 8-(4-(4-(4-chlorophenyl)-piperazine-1-sulfonyl)phenyl)-1-propylxanthine]
Ki [1]: 1.43 ± 0.58 nM | Ki [2]: 1.43 ± 0.73 nM | Kb (human A2BAR [16]): 0.358 nM | Kb [17]: 0.871 nM | Ki (human A2AAR [14]; ref [12]): > 10000 nM | Kb ([9]; versus BAY60-6583, ref Wei Q, read-out: A2B antagonist KB): 1 nM

Nc1nc2c(cnn2CCc2ccccc2)c2nc(-c3ccco3)nn12 [SCH58261]
A2A antagonist IC50/KB [8, 29]: SCH58261:405 nM | block of NECA-induced increase in coronary flow [18]: blocked NECA-induced increase in coronary flow to a higher degree in KO than in WT mice

CCNC(=O)[C@H]1O[C@@H](n2cnc3c(N)nc(NCCc4ccc(CCC(=O)O)cc4)nc32)[C@H](O)[C@@H]1O [[³H]CGS-21680]
KD ± SEM [19]: No binding

CCCn1c(=O)[nH]c2nc(-c3ccc(S(=O)(=O)N4CCN(c5ccc(Cl)cc5)CC4)cc3)[nH]c2c1=O [[³H]PSB-603]
KD ± SEM [19]: no high-affinity binding | KD ± SEM (human A2AAR [20]): no high-affinity binding | KD ± SEM (HA-tagged human A2AAR): no high-affinity binding | KD ± SEM [21]: high affinity binding | Kd ([21]; read-out: KD ± SEM): 2.09 ± 0.72 nM | Kd [22]: 2.49 ± 1.39 nM | KD ± SEM [23]: High affinity binding | Kd ([23]; read-out: KD ± SEM): 0.68 ± 0.242 nM | Kd [24]: 0.241 ± 0.108 nM | Kd (human A2BAR [25]): 0.403 ± 0.188 nM

Nc1ncnc2c1ncn2[C@@H]1O[C@H](CO)[C@@H](O)[C@H]1O [adenosine]
EC50 [7, 28]: 65000 nM | EC50 (HEK-A2B cells, A2B ≥ A2A; [27]): 2510 nM

— PMC5862601 (Oncotarget, 2018)
